Test results published in patent US10660967B2, “Curcumin conjugates and methods of use thereof” (priority 2016, dated 2020).
Like-named read-outs stand apart in the source and are kept apart here.

Legend:
[1] = test system: Staphylococcus aureus ATCC25923; test: Antimicrobial MIC, agar dilution
[2] = test system: Candida albicans (local isolate); test: Antimicrobial MIC, agar dilution; details: Candida albicans, read-out: Minimum inhibitory concentration (MIC)
[3] = test system: A-549 (lung) carcinoma cell line; test: Anti-tumor properties, MTT; assay type: cell-based; details: Homo sapiens, A549
[4] = test system: PHA-stimulated splenocytes; test: Proliferative response of PHA-stimulated splenocytes (MTT assay); assay type: cell-based; details: PHA 5 μg/ml, 72 hr; compounds at 5 μM (method says 10 μM); ratio of O.D. versus vehicle control
Outline: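 Freshly prepared splenocytes (1×10^6 cells/well) were cultured for 72 h at 37° C with compound at 10 μM final, with or without PHA (5 μg/ml). Viability was read by MTT (4 h), with absorbance at 570 nm against 690 nm reference. Stimulation index is the OD ratio of treated versus vehicle cultures.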

[5] = test system: Pseudomonas aeruginosa ATCC27853; test: Antimicrobial MIC, agar dilution
[6] = test system: Salmonella typhi ATCC19430; test: Antimicrobial MIC, agar dilution; assay type: cell-based; details: Salmonella enterica, read-out: Minimum inhibitory concentration (MIC)
[7] = test system: HepG2 (hepatocellular) carcinoma cell line; test: Anti-tumor properties, MTT; assay type: cell-based; details: Homo sapiens, HepG2; read-out: IC50 (μM) HepG2 (liver)
Outline: (§1)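 Cells seeded at 10×10^3 per well for 24 h, then exposed to compound in serum-free medium (final up to 100 μM, 0.5% DMSO vehicle) for 72 h in triplicate. Viability by MTT reduction (4 h, SDS solubilised), absorbance 595 nm/ref 620 nm; IC50 from survival curves.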

[8] = test system: MCF7 (breast) carcinoma cell line; test: Anti-tumor properties, MTT; assay type: cell-based; details: Homo sapiens, MCF7; read-out: IC50 (μM) MCF7 (breast)
Outline: as §1

[9] = test system: HCT116 (colon) carcinoma cell line; test: Anti-tumor properties, MTT; assay type: cell-based; details: Homo sapiens, HCT-116; read-out: IC50 (μM) HCT116 (colon)
Outline: as §1

[10] = test system: gastric mucosa; test: Ulcerogenic liability (ulcer index); assay type: in vivo, albino mice; details: orally, three successive days, 10 mg/kg indomethacin mol equivalent; for Number of animals with ulcer: 6 animals per group; for Ulcer index: sum of the three values
Outline: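 Albino mice were fasted 18 h before dosing, and controls got saline with a few drops of Tween 80. Gastric mucosa was checked under a 10× lens for lesions and erosions. The ulcer index combines percentage incidence divided by 10, mean ulcers per stomach and mean severity.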

[11] = test system: PC3 (prostate) carcinoma cell line; test: Anti-tumor properties, MTT; assay type: cell-based; details: Homo sapiens
[12] = test system: Streptococcus pyogenes ATCC19615; test: Antimicrobial MIC, agar dilution
[13] = test system: lipopolysaccharide-stimulated peritoneal macrophages; test: Production of nitric oxide by lipopolysaccharide-stimulated peritoneal macrophages (Greiss reagent); assay type: cell-based; parameters: Potency (%): % inhibition of nitric oxide production relative to lipopolysaccharide-stimulated macrophages: concentration or dose not given beside the values; details: LPS-stimulated peritoneal macrophages; for Nitric oxide (nitrite) concentration, μM (average ± SD): 24 h, nitrite by Greiss reagent
Outline: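 Macrophages in nitrite-free medium with 0.1% BSA were stimulated with LPS at 0.5–10 ng/ml, some wells also receiving epinephrine, norepinephrine or dopamine at […], for 24 h at 37° C. Nitrite in supernatants was measured with Greiss reagent, 15 min at room temperature, absorbance 532 nm.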

[14] = ATCC25923, 18 h, read-out: Minimum inhibitory concentration (MIC)
[15] = ATCC25923, read-out: Minimum inhibitory concentration (MIC)
[16] = ATCC27853, 18 h, read-out: Minimum inhibitory concentration (MIC)
[17] = ATCC27853, read-out: Minimum inhibitory concentration (MIC)
[18] = ATCC19615, 18 h, read-out: Minimum inhibitory concentration (MIC)
[19] = ATCC19615, read-out: Minimum inhibitory concentration (MIC)

SMILES | MIC [1, 14] [µg/mL] | MIC [1, 15] [µM] | MIC ([2]; 18 h) [µg/mL] | MIC [2] [µM] | IC50 [3] [µM] | Stimulation Index (average ± SD) [4] | MIC [5, 16] [µg/mL] | MIC [5, 17] [µM] | MIC ([6]; 18 h) [µg/mL] | MIC [6] [µM] | IC50 [7] [µM] | IC50 [8] [µM] | IC50 [9] [µM] | % Incidence of ulcer divided by 10 [10] | Average of ulcer number [10] | IC50 [11] [µM] | MIC [12, 18] [µg/mL] | MIC [12, 19] [µM] | Potency (%): % inhibition of nitric oxide production relative to lipopolysaccharide-stimulated macrophages [13] [%] | Nitric oxide (nitrite) concentration, μM (average ± SD) [13] [µM] | further results
COc1cc(/C=C/C(=O)CC(=O)/C=C/c2ccc(OC(=O)[C@H](CCSC)NC(=O)OC(C)(C)C)c(OC)c2)ccc1OC(=O)[C@H](CCSC)NC(=O)OC(C)(C)C [Boc-L-Met-Cur, ((1E,6E)-3,5-dioxohepta-1,6-diene-1,7-diyl)bis(2-methoxy-4,1-phenylene) (2S,2′S)-bis(2-((tert-butoxycarbonyl)amino)-4-(methylthio)butanoate)] | 2 | 2.41 | 1 | 1.2 | > 100 | 1.37 ± 0.10 | 1 | 1.2 | 2 | 2.41 | > 100 | 36.3 | > 100 | 0 | 0 | > 100 | 2 | 2.41 | 40.84 | 16.16 ± 0.64 | Average severity of ulcer [10]: 0; Number of animals with ulcer [10]: 0/6; Ulcer index [10]: 0
COc1cc(/C=C/C(=O)CC(=O)/C=C/c2ccc(OC(=O)[C@@H](C)N)c(OC)c2)ccc1OC(=O)[C@@H](C)N.Cl.Cl [HCl-D-Ala-Cur, (2R,2′R)-1,1′-((((1E,6E)-3,5-dioxohepta-1,6-diene-1,7-diyl)bis(2-methoxy-4,1-phenylene))bis(oxy))bis(1-oxopropan-2-aminium) chloride] | 0.125 | 0.214 | 0.125 | 0.214 | 30.9 | 1.35 ± 0.07 | 1 | 1.71 | 0.25 | 0.428 | 34.3 | 10.4 | 39.2 | 0 | 0 | 30.7 | 0.25 | 0.428 | 41.26 | 16.04 ± 0.46 | Average severity of ulcer [10]: 0; Number of animals with ulcer [10]: 0/6; Ulcer index [10]: 0
COc1cc(/C=C/C(=O)CC(=O)/C=C/c2ccc(OC(=O)CN)c(OC)c2)ccc1OC(=O)CN.Cl.Cl [HCl-Gly-Cur, 2,2′-((((1E,6E)-3,5-dioxohepta-1,6-diene-1,7-diyl)bis(2-methoxy-4,1-phenylene))bis(oxy))bis(2-oxoethan-1-aminium) chloride] | 0.5 | 0.9 | 1 | 1.8 | 18.9 | 0.99 ± 0.16 | 1 | 1.8 | 0.25 | 0.45 | 39.8 | 9.15 | 36.2 | 0 | 0 | 38.7 | 0.25 | 0.45 | 49.98 | 13.66 ± 1.05 | Average severity of ulcer [10]: 0; Number of animals with ulcer [10]: 0/6; Ulcer index [10]: 0
CC[C@H](C)[C@H](N)C(=O)Oc1ccc(/C=C/C(=O)CC(=O)/C=C/c2ccc(OC(=O)[C@@H](N)[C@@H](C)CC)c(OC)c2)cc1OC.Cl.Cl [HCl-L-Ile-Cur, (2S,2′S,3S,3′S)-1,1′-((((1E,6E)-3,5-dioxohepta-1,6-diene-1,7-diyl)bis(2-methoxy-4,1-phenylene))bis(oxy))bis(3-methyl-1-oxopentan-2-aminium) chloride] | 0.25 | 0.374 | 0.125 | 0.187 | 20.9 | 1.59 ± 0.17 | 0.25 | 0.374 | 0.125 | 0.187 | 38.9 | 10.2 | 36.7 | – | – | 34.4 | 0.5 | 0.749 | 35.45 | 17.63 ± 1.14 | –
COc1cc(/C=C/C(=O)CC(=O)/C=C/c2ccc(OC(=O)[C@@H](N)CCSC)c(OC)c2)ccc1OC(=O)[C@@H](N)CCSC.Cl.Cl [HCl-L-Met-Cur, (2S,2′S)-1,1′-((((1E,6E)-3,5-dioxohepta-1,6-diene-1,7-diyl)bis(2-methoxy-4,1-phenylene))bis(oxy))bis(4-(methylthio)-1-oxobutan-2-aminium) chloride] | 0.25 | 0.355 | 0.5 | 0.711 | 32.8 | 1.49 ± 0.06 | 0.5 | 0.711 | 0.125 | 0.178 | 39.8 | 11.3 | 61.9 | 0 | 0 | 42.6 | 0.5 | 0.711 | 37.94 | 16.95 ± 0.40 | Average severity of ulcer [10]: 0; Number of animals with ulcer [10]: 0/6; Ulcer index [10]: 0
COc1cc(/C=C/C(=O)CC(=O)/C=C/c2ccc(OC(=O)[C@@H](N)Cc3ccccc3)c(OC)c2)ccc1OC(=O)[C@@H](N)Cc1ccccc1.Cl.Cl [HCl-L-Phe-Cur, (2S,2′S)-1,1′-((((1E,6E)-3,5-dioxohepta-1,6-diene-1,7-diyl)bis(2-methoxy-4,1-phenylene))bis(oxy))bis(1-oxo-3-phenylpropan-2-aminium) chloride] | 0.25 | 0.34 | 0.5 | 0.68 | 33.5 | 1.41 ± 0.31 | 0.5 | 0.68 | 0.125 | 0.17 | 56.2 | 11.5 | 65.6 | – | – | 74.4 | 0.5 | 0.68 | 39.74 | 16.46 ± 2.05 | –
COc1cc(/C=C/C(=O)CC(=O)/C=C/c2ccc(OC(=O)[C@@H](N)C(C)C)c(OC)c2)ccc1OC(=O)[C@@H](N)C(C)C.Cl.Cl [HCl-L-Val-Cur, (2S,2′S)-1,1′-((((1E,6E)-3,5-dioxohepta-1,6-diene-1,7-diyl)bis(2-methoxy-4,1-phenylene))bis(oxy))bis(3-methyl-1-oxobutan-2-aminium) chloride] | 0.25 | 0.391 | 0.125 | 0.195 | 20.4 | 2.05 ± 0.15 | 0.25 | 0.391 | 0.125 | 0.195 | 39.1 | 10.4 | 66.5 | – | – | 34.6 | 0.125 | 0.195 | 24.37 | 20.65 ± 0.99 | –
